From patent publication US8192962B2, “Processes for detecting toxic substances” (Daikin Industries, Ltd., priority 2001, dated 2012)

Tested on: Genes belonging to other category
Assay: DNA chip mRNA expression in yeast, genes belonging to other category (Table 9)
Format: cell-based, Saccharomyces cerevisiae S288C
Method in brief: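 Expression change after 2 h toxicant exposure (growth-inhibiting, sub-lethal) of log-phase S. cerevisiae S288C at 25° C. Oligo-dT-purified mRNA was labeled with Cy3-dUTP or Cy5-dUTP and hybridized >12 h at 65° C. to a genome-wide chip; ratio of scanned fluorescence to control.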

Measured: The level of expressed mRNA in the presence of chemical substance/The level of expressed mRNA in the absence of chemical substance

C=CC=O [(14), acrolein]
1.0: yeast gene YAR009C | yeast gene YAR010C | yeast gene YBR010W | yeast gene YCR062W | yeast gene YCR069W | yeast gene YDR084C | yeast gene YDR125C | yeast gene YDR427W | yeast gene YFR014C | yeast gene YGL150C | yeast gene YGL229C | yeast gene YGR036C | yeast gene YGR120C | yeast gene YGR213C | yeast gene YHR161C | yeast gene YHR171W | yeast gene YIL142W
0.8: yeast gene YER130C | yeast gene YHR004C
2.3: yeast gene YGL158W
1.6: yeast gene YAL055W | yeast gene YDR085C | yeast gene YER009W | yeast gene YFL028C | yeast gene YFR050C | yeast gene YHR071W
1.3: yeast gene YBR170C | yeast gene YBR177C | yeast gene YER021W
3.1: yeast gene YFL022C
3.0: yeast gene YBR173C
2.1: yeast gene YDR373W | yeast gene YER025W | yeast gene YGR232W
1.2: yeast gene YCL027W | yeast gene YDL238C | yeast gene YDR358W | yeast gene YER039C | yeast gene YHR142W
0.3: yeast gene YIL123W
1.5: yeast gene YBL101W-A | yeast gene YBR026C | yeast gene YBR286W | yeast gene YDL018C | yeast gene YDR115W | yeast gene YDR259C | yeast gene YER072W | yeast gene YFL043C | yeast gene YGL185C | yeast gene YHR109W | yeast gene YHR163W
1.4: yeast gene YBL005W-A | yeast gene YBR290W | yeast gene YDL137W | yeast gene YDR104C | yeast gene YDR168W | yeast gene YDR315C | yeast gene YDR378C | yeast gene YGR239C | yeast gene YIL076W
3.7: yeast gene YCR004C
0.6: yeast gene YDR388W | yeast gene YEL042W
0.5: yeast gene YDR432W
2.2: yeast gene YDL008W
1.1: yeast gene YAR062W | yeast gene YBL102W | yeast gene YBR139W | yeast gene YBR239C | yeast gene YDR403W | yeast gene YER107C | yeast gene YGR136W | yeast gene YHR169W | yeast gene YIL034C
1.9: yeast gene YBL043W | yeast gene YDR510W | yeast gene YEL066W
1.7: yeast gene YCL020W | yeast gene YCR071C | yeast gene YDR304C | yeast gene YIL010W
2.0: yeast gene YBL041W | yeast gene YGR131W
3.6: yeast gene YBL078C
0.9: yeast gene YBR214W | yeast gene YCR088W | yeast gene YDR055W | yeast gene YDR481C | yeast gene YER177W | yeast gene YGL094C | yeast gene YGR189C | yeast gene YGR257C | yeast gene YIL140W
2.5: yeast gene YHR139C
